From article PMC7838546, “A Thermostable, Modified Cathelicidin-Derived Peptide With Enhanced Membrane-Active Activity Against Salmonella enterica serovar Typhimurium” (Frontiers in Microbiology, 2021)
Ends that are not written are not given here.

Columns and labels:
[1] = system: S. enterica serovar 4,5,12:i:- H1-024 (clinical isolate); assay type: cell-based, Salmonella enterica serovar 4,5,12:i:-; conditions: H1-024, rectal swab, resistant Amc, Amp, Ctx, C, NA, SxT, intermediate Cp; for MIC: broth microdilution, 37°C, 24 h
Method: (§1) Salmonella enterica serovar Typhimurium ATCC 13311, 24 drug-resistant foodborne and eleven drug-resistant human borne S. enterica serovar Typhimurium and 4,5,12:i:- isolates (Table 1) were used as test microorganisms. They were previously isolated for molecular characterization in 2014 and kindly provided by Dr. Soraya Chaturongakul (Mahidol University, Thailand) ([Huoy et al., 2014]). All bacteria were cultured in Tryptic Soy Broth (TSB) and incubated at 37°C for 18 h. Mueller Hinton Broth (MHB) was then used to wash and rinse the bacteria. The bacterial suspensions were then diluted to obtain concentrations of 10^7 CFU/ml for inoculations.
(§2) A modified version of the National Committee for Clinical Laboratory Standards (NCCLS) broth microdilution method ([Steinberg et al., 1997]) was used to determine the minimum inhibitory concentrations (MICs) of peptide and compared to that of nisin. Fifty microliters of two-fold serial dilutions of each peptide [0.98–250 μg/ml in 0.01% (v/v) acetic acid and 0.2% (w/v) bovine serum albumin (BSA, Sigma-Aldrich, MO, United States)], were incubated with 50 μl of bacterial suspensions (approximately 10^7 CFU/ml) at 37°C for 24 h in a shaking incubator. MICs were taken as the lowest concentration of peptide at which growth was inhibited as observed by visual inspection. Bacterial cultures without peptides and uncultured broth were used as positive and negative controls, respectively. Minimal bactericidal concentrations (MBCs) were determined using a colony count assay ([Clinical Laboratory Standards Institute [CLSI], 2015]). Fifty microliters of samples from each non-turbid well in the MIC determination experiment was plated on Mueller Hinton Agar (MHA) and colonies were observed after overnight incubation at 37°C. MBCs were designated as the least concentration showing no colony growth on the plate. All of experiments were performed in triplicate.

[2] = system: S. enterica serovar 4,5,12:i:- H1-100 (clinical isolate); assay type: cell-based, Salmonella enterica serovar 4,5,12:i:-; conditions: H1-100, stool, resistant Amp, C, Cp, T, SxT, intermediate Amc, NA; for MIC: broth microdilution, 37°C, 24 h
Method: as §1, §2

[3] = system: S. enterica serovar 4,5,12:i:- H1-102 (clinical isolate); assay type: cell-based, Salmonella enterica serovar 4,5,12:i:-; conditions: H1-102, stool, resistant Amp, C, T, SxT, intermediate Amc; for MIC: broth microdilution, 37°C, 24 h
Method: as §1, §2

[4] = system: S. enterica serovar 4,5,12:i:- H2-009 (foodborne isolate); assay type: cell-based, Salmonella enterica serovar 4,5,12:i:-; conditions: H2-009, pork fat, resistant Amp, C, T, broth microdilution, 37°C, 24 h
Method: as §1, §2

[5] = system: S. enterica serovar 4,5,12:i:- H2-010 (foodborne isolate); assay type: cell-based, Salmonella enterica serovar 4,5,12:i:-; conditions: H2-010, pork skin, resistant Amp, C, T, broth microdilution, 37°C, 24 h
Method: as §1, §2

[6] = system: S. enterica serovar 4,5,12:i:- H2-038 (foodborne isolate); assay type: cell-based, Salmonella enterica serovar 4,5,12:i:-; conditions: H2-038, pork kidney, resistant Amp, T; for MIC: broth microdilution, 37°C, 24 h
Method: as §1, §2

[7] = system: S. enterica serovar 4,5,12:i:- H2-039 (foodborne isolate); assay type: cell-based, Salmonella enterica serovar 4,5,12:i:-; conditions: H2-039, pork intestine, resistant Amp, T; for MIC: broth microdilution, 37°C, 24 h
Method: as §1, §2

[8] = system: S. enterica serovar 4,5,12:i:- H2-042 (foodborne isolate); assay type: cell-based, Salmonella enterica serovar 4,5,12:i:-; conditions: H2-042, pork intestine, resistant Amp, C, T, SxT, intermediate Cp; for MIC: broth microdilution, 37°C, 24 h
Method: as §1, §2

[9] = system: S. enterica serovar 4,5,12:i:- H2-043 (foodborne isolate); assay type: cell-based, Salmonella enterica serovar 4,5,12:i:-; conditions: H2-043, pork heart, resistant Amp, T, intermediate Cp; for MIC: broth microdilution, 37°C, 24 h
Method: as §1, §2

[10] = system: S. enterica serovar 4,5,12:i:- H2-044 (foodborne isolate); assay type: cell-based, Salmonella enterica serovar 4,5,12:i:-; conditions: H2-044, pork kidney, resistant Amp, C, T, SxT, intermediate Cp; for MIC: broth microdilution, 37°C, 24 h
Method: as §1, §2

[11] = system: S. enterica serovar 4,5,12:i:- H2-045 (foodborne isolate); assay type: cell-based, Salmonella enterica serovar 4,5,12:i:-; conditions: H2-045, pork intestine, resistant Amp, T, intermediate Cp; for MIC: broth microdilution, 37°C, 24 h
Method: as §1, §2

[12] = system: S. enterica serovar 4,5,12:i:- H2-049 (foodborne isolate); assay type: cell-based, Salmonella enterica serovar 4,5,12:i:-; conditions: H2-049, pork intestine, resistant Amp, T, broth microdilution, 37°C, 24 h
Method: as §1, §2

[13] = system: S. enterica serovar 4,5,12:i:- H2-054 (foodborne isolate); assay type: cell-based, Salmonella enterica serovar 4,5,12:i:-; conditions: H2-054, pork intestine, resistant Amp, T; for MIC: broth microdilution, 37°C, 24 h
Method: as §1, §2

[14] = system: S. enterica serovar 4,5,12:i:- H2-070 (foodborne isolate); assay type: cell-based, Salmonella enterica serovar 4,5,12:i:-; conditions: H2-070, pork liver, resistant Amp, Ctx, C, T, SxT, intermediate Cp; for MIC: broth microdilution, 37°C, 24 h
Method: as §1, §2

[15] = system: S. enterica serovar 4,5,12:i:- H2-075 (foodborne isolate); assay type: cell-based, Salmonella enterica serovar 4,5,12:i:-; conditions: H2-075, pork intestine, resistant Amp, T; for MIC: broth microdilution, 37°C, 24 h
Method: as §1, §2

[16] = system: S. enterica serovar Typhimurium H1-011 (clinical isolate); assay type: cell-based, Salmonella enterica serovar Typhimurium; conditions: H1-011, stool, resistant Amp, T, intermediate Amc, Ctx, Cp, NA; for MIC: broth microdilution, 37°C, 24 h
Method: as §1, §2

Substance | MIC [1] | MIC [2] | MIC [3] | MIC [4] [µg/mL] | MIC [5] [µg/mL] | MIC [6] | MIC [7] | MIC [8] | MIC [9] | MIC [10] | MIC [11] | MIC [12] [µg/mL] | MIC [13] | MIC [14] | MIC [15] | MIC [16] | further results
Nisin: authorized food preservative peptide, binds lipid II and forms membrane pores (ITSISLCTPGCKTGALMGCNMKTATCHCSIHVSK; cysteine pairing not given here; also: lantibiotic nisin-A; UniProt P13068 24-57, looked up) | >1000 µg/mL | >1000 µg/mL | >1000 µg/mL | >1000 | >1000 | >1000 µg/mL | >1000 µg/mL | >1000 µg/mL | >1000 µg/mL | >1000 µg/mL | >1000 µg/mL | >1000 | >1000 µg/mL | >1000 µg/mL | >1000 µg/mL | >1000 µg/mL | 
KIAKRIWKILRR-NH2 [P7] | 3.91 (3.91) μg/ml | 7.81 (7.81) μg/ml | 7.81 (7.81) μg/ml | 3.91 | 3.91 | 7.81 (7.81) μg/ml | 3.91 (3.91) μg/ml | 7.81 (7.81) μg/ml | 7.81 (7.81) μg/ml | 7.81 (7.81) μg/ml | 7.81 (7.81) μg/ml | 3.91 | 7.81 (7.81) μg/ml | 7.81 (7.81) μg/ml | 7.81 (7.81) μg/ml | 7.81 (7.81) μg/ml | MBC ([1]; colony count on MHA): 3.91 (3.91) μg/ml; MBC ([2]; colony count on MHA): 7.81 (7.81) μg/ml; MBC ([3]; colony count on MHA): 7.81 (7.81) μg/ml; MBC ([6]; colony count on MHA): 7.81 (7.81) μg/ml; MBC ([7]; colony count on MHA): 3.91 (3.91) μg/ml; MBC ([8]; colony count on MHA): 7.81 (7.81) μg/ml; MBC ([9]; colony count on MHA): 7.81 (7.81) μg/ml; MBC ([10]; colony count on MHA): 7.81 (7.81) μg/ml; MBC ([11]; colony count on MHA): 7.81 (7.81) μg/ml; MBC ([13]; colony count on MHA): 7.81 (7.81) μg/ml; MBC ([14]; colony count on MHA): 7.81 (7.81) μg/ml; MBC ([15]; colony count on MHA): 7.81 (7.81) μg/ml; MBC ([16]; colony count on MHA): 7.81 (7.81) μg/ml
